Laboratory results reported in patent US8507536B2, “Gonadotropin-releasing hormone receptor antagonists and methods relating thereto” (Neurocrine Biosciences, Inc., priority 2007, dated 2013).

Target: T1, human GnRH receptor (Homo sapiens, UniProt P30968)
T1 construct: expressed in transfected cells; membrane preparations
T1 sequence (P30968 1-328): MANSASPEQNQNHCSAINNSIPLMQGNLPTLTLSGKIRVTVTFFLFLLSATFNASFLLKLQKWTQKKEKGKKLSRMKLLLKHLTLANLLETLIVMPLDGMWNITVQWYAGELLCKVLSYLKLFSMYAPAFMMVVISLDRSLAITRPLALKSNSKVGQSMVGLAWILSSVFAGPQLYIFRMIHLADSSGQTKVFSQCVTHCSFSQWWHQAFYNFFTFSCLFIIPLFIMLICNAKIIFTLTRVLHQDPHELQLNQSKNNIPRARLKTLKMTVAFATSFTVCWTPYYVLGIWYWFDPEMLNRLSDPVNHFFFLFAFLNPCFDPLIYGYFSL
Test: peptide competitive human receptor binding assays (radioligand displacement)
Settings: tested in one or more of the peptide competitive human receptor binding assays
Procedure: HEK293 cells stably transfected with the human GnRH receptor are grown for two days after achieving confluence then are harvested by striking tissue culture flasks against a firm surface. Cells are collected by centrifugation at 1000 g for […]. Cell pellets are resuspended in 5% sucrose and homogenized using a polytron homogenizer for two 15 second homogenization steps. Cell homogenates are then centrifuged for 5 minutes at 3000 g to remove nuclei and the supernatant subsequently centrifuged for 30 minutes at 44,000 g to collect the membrane fraction. The membrane pellet is resuspended in GnRH binding buffer (10 mM HEPES, pH 7.5, 150 mM NaCl and 0.1% BSA) and aliquots immediately snap-frozen in liquid nitrogen and stored at −80° C. Protein content of the membrane suspension is determined using the Bio-Rad protein assay kit (Bio-Rad).
RBL cells stably transfected with the human GnRH receptor are grown to 80% confluency prior to harvesting. The cells are incubated at 37° C. for 10 min in 0.5 mM EDTA/PBS (Ca^++, Mg^++ free), and are dislodged from the plate by gentle rapping of the flasks. Cells are collected and pelleted by centrifugation at 1000 g for 5 minutes. Cell pellets are resuspended in buffer (DPBS supplemented with 10 mM MgCl2, 2 mM EGTA, pH=7.4), and cell lysis is performed using a pressure cell and applying N2 at a pressure of 900 psi for 30 min at 4° C. Unbroken cells and larger debris were removed by centrifugation at 1200 g for 10 min at 4° C. The cell membrane supernatant is then centrifuged at 45,000 g and the resulting membrane pellet is resuspended in assay buffer and homogenized on ice using a tissue homogenizer. Protein concentrations are determined using the Coomassie Plus Protein Reagent kit. Membranes are aliquoted and stored at −80° C. until ready for use.
Radioligand binding displacement assays using the peptide radioligands are performed in buffer containing 10 mM HEPES, 150 mM NaCl and 0.1% BSA, pH=7.5. Radioligand binding assays employing the use of [^3H]-1-(2,6-difluorobenzyl)-3-[(2R)-amino-2-phenethyl]-5-(2-fluoro-3-methoxyphenyl)-6-methyluracil (here the 3-methoxy group is tritiated) are run in buffer containing 50 mM Tris, 150 mM NaCl, 5 mM MgCl2, 0.01% saponin and 0.5 mM EDTA, pH=7.5. Radioligand displacement assays are performed by incubating radioligand ([^125I-Tyr^5, DLeu^6, NMeLeu^7, Pro^9-NEt]GnRH (0.1 nM), [His^5, ^125I-DTyr^6]GnRH (0.2 nM) (31) or [^3H]-1-(2,6-difluorobenzyl)-3-[(2R)-amino-2-phenethyl]-5-(2-fluoro-3-methoxyphenyl)-6-methyluracil (1 nM)), unlabeled competitors at concentrations ranging from 0.3 pM to 10 μM, and membranes for 2 hrs at rt. 10 to 20 μg protein/well is used from membrane preparations for human, monkey and rabbit GnRH receptor. 5 μg/well and 60 μg/well of membranes are used for rat and dog GnRH receptors, respectively. Binding assays are performed in either Millipore 96-well GF/C filtration plates (for ([^125I-Tyr^5, DLeu^6, NMeLeu^7, Pro^9-NEt]GnRH assays), or in 96 well low binding plates, which are subsequently filtered onto GF/C Unifilters. Filters are pretreated with 0.5% PEI for 30 min prior to use. Reactions are terminated by rapid vacuum filtration, and the filters are washed twice with 250 μL ice cold PBS pH=7.4 (0.01% Tween-20 is included in wash media for [His^5, ^125I-DTyr^6]GnRH and [^3H]-1-(2,6-difluorobenzyl)-3-[(2R)-amino-2-phenethyl]-5-(2-fluoro-3-methoxyphenyl)-6-methyluracil radioligands). The filters are dried, and the Millipore filters are monitored for radioactivity using a Cobra II gamma counter (Perkin Elmer Life Sciences). For assays filtered onto the GF/C Unifilter plates, 50 μL scintillation fluid is added to each filter, and radioactivity is monitored using a TopCount NXT. For iodinated radioligands, total radioligand is monitored on a gamma counter, and for the tritiated radioligand, total radioligand is monitored using a Perkin Elmer 1600TR liquid scintillation counter. […]

Row | Ki [nM] | Structure (SMILES)
1 | ≤ 100 | COc1cc(Cl)c(-c2cnc(C(F)(F)F)cc2C#N)cc1S(=O)(=O)N1CCCCc2ccccc21 [Example 15-17]
2 | ≤ 100 | COc1cc(Cl)c(-c2cnc(C(F)(F)F)cc2C#N)cc1S(=O)(=O)N(C)c1ccccn1 [Example 15-18]
3 | ≤ 100 | COc1cc(Cl)c(-c2cnc(C(F)(F)F)cc2C#N)cc1S(=O)(=O)N(C)c1ncccc1C [Example 15-19]
4 | ≤ 100 | COc1cccc(N(C)S(=O)(=O)c2cc(-c3cnc(C(F)(F)F)cc3C#N)c(Cl)cc2OC)n1 [Example 15-20]
5 | ≤ 100 | COc1cc(Cl)c(-c2cnc(C(F)(F)F)cc2C#N)cc1S(=O)(=O)N(C)CC(C)C [Example 15-21]
6 | ≤ 100 | CCOC(=O)CN(C)S(=O)(=O)c1cc(-c2cnc(C(F)(F)F)cc2C#N)c(Cl)cc1OC [Example 15-26]
7 | ≤ 100 | CCCCNS(=O)(=O)c1cc(-c2cnc(C(F)(F)F)cc2C#N)c(Cl)cc1OC [Example 15-28]
8 | ≤ 100 | COc1ccccc1CN(C)S(=O)(=O)c1cc(-c2cnc(C(F)(F)F)cc2C#N)c(Cl)cc1OC [Example 15-29]
9 | ≤ 100 | COc1cc(Cl)c(-c2cnc(C(F)(F)F)cc2C#N)cc1S(=O)(=O)N(C)CC(C)(C)C [Example 15-30]
10 | ≤ 100 | COc1cccc(CN(C)S(=O)(=O)c2cc(-c3cnc(C(F)(F)F)cc3C#N)c(Cl)cc2OC)c1 [Example 15-32]
11 | ≤ 100 | COc1cc(Cl)c(-c2cnc(C(F)(F)F)cc2C#N)cc1S(=O)(=O)N(C)Cc1ccc(F)cc1 [Example 15-33]
12 | ≤ 100 | COc1cc(Cl)c(-c2cnc(C(F)(F)F)cc2C#N)cc1S(=O)(=O)N(C)Cc1cccc(F)c1 [Example 15-34]
13 | ≤ 100 | COc1cc(Cl)c(-c2cnc(C(F)(F)F)cc2C#N)cc1S(=O)(=O)N(C)Cc1ccccc1F [Example 15-35]
14 | ≤ 100 | COc1cc(Cl)c(-c2cnc(C(F)(F)F)cc2C#N)cc1S(=O)(=O)N(C)Cc1cccc(C)n1 [Example 15-38]
15 | ≤ 100 | COc1cc(Cl)c(-c2cnc(C(F)(F)F)cc2C#N)cc1S(=O)(=O)N(C)Cc1ccco1 [Example 15-39]
16 | ≤ 100 | COc1cc(Cl)c(-c2cnc(C(F)(F)F)cc2C#N)cc1S(=O)(=O)N(C)[C@H](C)c1ccccc1 [Example 15-43]
17 | ≤ 100 | COc1cc(Cl)c(-c2cnc(C(F)(F)F)cc2C#N)cc1S(=O)(=O)N(C)[C@@H](C)c1ccccc1 [Example 15-44]
18 | ≤ 100 | COC(=O)Cc1cc(Cl)c(-c2cnc(C(F)(F)F)cc2C#N)cc1S(=O)(=O)N1CCC(C)(C)c2ccccc21 [Example 16-1, [5-Chloro-4-(4-cyano-6-trifluoromethyl-pyridin-3-yl)-2-(4,4-dimethyl-3,4-dihydro-2H-quinoline-1-sulfonyl)-phenyl]-acetic acid methyl ester]
19 | ≤ 100 | CC1(C)CCN(S(=O)(=O)c2cc(-c3cnc(C(F)(F)F)cc3C#N)c(Cl)cc2CC(=O)O)c2ccccc21 [Example 17-1, [5-Chloro-4-(4-cyano-6-trifluoromethyl-pyridin-3-yl)-2-(4,4-dimethyl-3,4-dihydro-2H-quinoline-1-sulfonyl)-phenyl]-acetic acid]
20 | ≤ 100 | CN(c1ccccn1)S(=O)(=O)c1cc(-c2cnc(C(F)(F)F)cc2C#N)c(Cl)cc1OCCCC(=O)O [Example 18-1, 4-[5-chloro-4-(4-cyano-6-trifluoromethyl-pyridin-3-yl)-2-(methyl-pyridin-2-yl-sulfamoyl)-phenoxy]-butyric acid]
21 | ≤ 100 | CN(c1ccccn1)S(=O)(=O)c1cc(-c2cnc(C(F)(F)F)cc2C#N)c(Cl)cc1OCCC(=O)O [Example 18-2, 3-[5-chloro-4-(4-cyano-6-trifluoromethyl-pyridin-3-yl)-2-(methyl-pyridin-2-yl-sulfamoyl)-phenoxy]-propionic acid]
22 | ≤ 100 | CN(c1ccccn1)S(=O)(=O)c1cc(-c2cnc(C(F)(F)F)cc2C#N)c(Cl)cc1OCC(=O)O [Example 18-3, [5-chloro-4-(4-cyano-6-trifluoromethyl-pyridin-3-yl)-2-(methyl-pyridin-2-yl-sulfamoyl)-phenoxy]-acetic acid]
23 | ≤ 100 | CN(c1ccccc1)S(=O)(=O)c1cc(-c2cnc(C(F)(F)F)cc2C#N)c(Cl)cc1OCC(=O)O [Example 19-1, [5-chloro-4-(4-cyano-6-trifluoromethyl-pyridin-3-yl)-2-(methyl-phenyl-sulfamoyl)-phenoxy]-acetic acid]
